Assay results from PMC8507260, “A2E-induced inflammation and angiogenesis in RPE cells in vitro are modulated by PPAR-α, -β/δ, -γ, and RXR antagonists and by norbixin” (Aging (Albany NY), 2021).

How the values were obtained:
IL-8 = IL-8 mRNA expression by quantitative RT-PCR in porcine RPE cells; assay type: cell-based; settings: A2E 20 μM; MK886 1 μM, GSK3787 1 μM, T007907 10 μM, HX531 5 μM
Description: (§1) Pig eyes were obtained from a local slaughterhouse and transported to the laboratory in ice-cold Ringer solution. After removal of the anterior segment of the eye, the vitreous and neural retina was separated from the RPE and removed. The eyecup was washed twice with phosphate buffer saline (PBS), filled with trypsin (0.25% in PBS) and incubated at 37°C for 1.5 h. RPE cells were harvested by gently pipetting, centrifuged to remove trypsin and re-suspended in Dulbecco’s Modified Eagle Medium (DMEM) supplemented with 20% (v/v) foetal-calf serum (DMEM20%FCS) and 0.1% gentamycin. Cells were seeded into 60 mm diameter Petri dishes, cultured in an atmosphere of 5% CO2/95% air at 37°C, and supplied with fresh medium after 24 hours and 4 days in vitro. For experiments aimed at measuring mRNA or protein expression in RPE, cells were trypsinized after one week in culture and transferred to 24-well or 6-well plates at a density of 1.5 × 10^5 cells/cm^2 in DMEM2%FCS. Norbixin or agonists were added to the medium 24 h after seeding, and antagonists were added to the medium 24 h later. A2E treatment was performed during 19 h before cellular sample preparation. All the drugs used in these experiments were prepared as stock solutions in DMSO.
(§2) Total RNA was extracted using the NucleoSpin® RNA kit according to manufacturer’s instructions. RT of 500 ng of RNA was performed using the SuperScript III Reverse Transcriptase following the manufacturer’s instructions. Five ng of cDNA were amplified using the SYBR GREEN real-time PCR method. PCR primers for target genes and housekeeping gene GAPDH were designed using Primer3Plus Bioinformatic software (Table 2). The RT-PCR using the StepOne Plus (Life Technologies, Carlsbad, CA, USA) consisted of incubation at 50°C for 5 min followed by 40 cycles of 95°C for 15 s and of 60°C for 1 min. The reaction was completed by a melt curve stage at 95°C for 15 s, 60°C for 1 min, 95°C for 15 s and a final step at 60°C for 15 s. The relative mRNA expression was calculated using the comparative threshold method (Ct-method) with GAPDH for normalization. All experimental conditions were processed in triplicate and each experiment was done at least 3 times.

PPAR = assay: Endogenous PPAR transactivation, luciferase reporter in primary porcine RPE cells; assay type: cell-based; settings: A2E 20 μM; for effect on endogenous PPAR transactivation induced by A2E: MK886 1 μM, GSK3787 1 μM, T007907 10 μM, separately or as mixture
Description: as §1
(§3) After one week in culture, cells were trypsinized and transferred to a 96-well plate at a density of 6 × 10^4 cells/cm^2 in DMEM2%FCS. The next day, cells were transfected using the Cignal Reporter Assay Kits for PPAR, RXR, AP-1 and NF-κB, according to the manufacturer’s specifications. To measure the specific activation of PPAR isoforms, cells were also co-transfected with PPAR-α, PPAR-β/δ or PPAR-γ expression vectors. Transfection was performed with Lipofectamine and Plus Reagent in serum-free medium. 3 h after the transfection, the medium was replaced and treatments with the molecules to assay were performed. Luciferase activity was measured the next day using the Dual-Luciferase Reporter Assay System. The measurements were performed with a luminometer (Infinite M1000 from Tecan, Mannedorf, Switzerland). Firefly: Renilla activity ratios were calculated for each condition and ratios from transcription factor-responsive reporter transfections were divided by ratios from negative control transfections to obtain relative luciferase unit, as described by the manufacturer. At least 3 independent transfections were performed in triplicate for each condition.

IL-6 = IL-6 mRNA expression by quantitative RT-PCR in porcine RPE cells; assay type: cell-based; settings: T007907 10 μM; for reduction of IL-6 mRNA expression induced by A2E: NBX 20 μM with A2E 30 μM, MK886 1 μM, GSK3787 1 μM, HX531 5 μM with A2E 20 μM
Description: as §1, §2

PPAR-α [1] = target: T1, PPAR-α (Homo sapiens, UniProt Q07869); settings: stated without reference; cited from earlier work
T1 construct: Eurofins Cerep (contract laboratory that ran the assay)
T1 sequence (Q07869 1-468): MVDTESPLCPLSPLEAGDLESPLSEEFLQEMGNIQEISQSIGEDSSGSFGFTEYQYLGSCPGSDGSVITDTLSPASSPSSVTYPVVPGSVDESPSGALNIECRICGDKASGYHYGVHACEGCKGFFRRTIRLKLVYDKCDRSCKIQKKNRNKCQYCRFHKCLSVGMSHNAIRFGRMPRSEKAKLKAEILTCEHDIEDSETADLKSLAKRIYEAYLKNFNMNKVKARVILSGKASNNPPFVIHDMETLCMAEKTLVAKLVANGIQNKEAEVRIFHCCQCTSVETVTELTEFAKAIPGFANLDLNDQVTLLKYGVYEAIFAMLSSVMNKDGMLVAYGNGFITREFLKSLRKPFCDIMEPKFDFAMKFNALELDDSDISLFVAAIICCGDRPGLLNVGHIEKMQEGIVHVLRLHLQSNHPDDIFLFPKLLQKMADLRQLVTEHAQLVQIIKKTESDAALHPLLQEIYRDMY

PPAR-α [2] = assay: Transactivation of over-expressed PPAR-α, luciferase reporter in porcine RPE cells; assay type: cell-based, pig; settings: vs DMSO control; A2E 20 μM; NBX increasing concentrations
Description: First, we evaluated the binding profile of A2E to all three isoforms of PPAR. […] Then the effects of A2E on the endogenous PPAR transactivation in porcine RPE cells were investigated by means of a luciferase assay. […] The level of transactivation of PPAR-α, -β/δ, or -γ isoforms by A2E was determined by co-transfection of porcine RPE cells with a plasmid expressing each of the full-length PPAR isoforms and a plasmid expressing luciferase under the control of the PPAR response element. […]. All usual chemicals, primers, and HX531 were from Sigma (St. Louis, MO, USA). Reagents for cell culture, transfection and quantitative RT-PCR were from Thermo Fisher Scientific (Waltham, MA, USA). RNA extraction NucleoSpin® RNA kit was from Macherey Nagel (Düren, Germany). ECL prime and PVDF membrane were from Amersham GE Healthcare (Buckinghamshire, UK). Primary antibodies against the following proteins were used: GAPDH (Santa Cruz Biotechnology, Inc, Dallas, TX, USA); pAKT, AKT, pERK and ERK (Cell Signaling, Danvers, MA, USA). Secondary antibodies were from Jackson ImmunoResearch (Cambridgeshire, UK). […] Cignal Pathway Reporter Assay Kits were from QIAGEN (Frederick, MD, USA). The Dual-Luciferase Reporter Assay System was purchased from Promega (Madison, WI, USA). pcDNA 3.1 (+)-PPARα and pcDNA 3.1 (+)-PPARβ/δ (pig sequence) were purchased from Genscript (Piscataway, NJ, USA). pCMV6-XL4-PPARγ (human sequence) was purchased from Origene (Rockville, MD, USA).
as §3

RXR = assay: Endogenous RXR transactivation, luciferase reporter in porcine RPE cells; assay type: cell-based; settings: NBX 20 μM
Description: as §1, §3

NF-κB = NF-κB transactivation, luciferase reporter in porcine RPE cells; assay type: cell-based; settings: A2E 20 μM, T007907 10 μM; for inhibition of NF-κB transactivation induced by A2E: NBX 20 μM, HX531 5 μM
Description: as §1, §3

AP-1 = AP-1 transactivation, luciferase reporter in porcine RPE cells; assay type: cell-based; settings: A2E 20 μM; NBX 20 μM, HX531 5 μM
Description: as §1
as §3, with “Transfection was performed with Lipofectamine and Plus Reagent in serum-free medium. 3 h after the transfection, the medium was replaced and treatments with the molecules to assay were performed.” left out, “The measurements were performed with a luminometer (Infinite M1000 from Tecan, Mannedorf, Switzerland).” left out, “At least 3 independent transfections were performed in triplicate for each condition.” left out

VEGF = VEGF mRNA expression by quantitative RT-PCR in porcine RPE cells; assay type: cell-based; settings: HX531 5 μM + A2E 20 μM
Description: as §1
as §2, with “All experimental conditions were processed in triplicate and each experiment was done at least 3 times.” left out

| SMILES | inhibition of IL-8 mRNA expression induced by A2E (IL-8) | effect on endogenous PPAR transactivation induced by A2E (PPAR) | reduction of IL-6 mRNA expression induced by A2E (IL-6) | inhibition of NF-κB transactivation induced by A2E (NF-κB) | further results |
| --- | --- | --- | --- | --- | --- |
| O=C(NCCS(=O)(=O)c1ccc(C(F)(F)F)cn1)c1ccc(Cl)cc1 [GSK3787] | 35% | did not significantly inhibit | 45% |  |  |
| CCCCCCCN(CCc1ccc(SC(C)(C)C(=O)O)cc1)C(=O)Nc1ccc(F)cc1F [GW9578] |  |  |  |  | binding affinity to PPAR-α (PPAR-α [1]): nanomolar range; transactivation of over-expressed PPAR-α by the compound alone (PPAR-α [2]): induced transactivation |
| CN1c2ccc([N+](=O)[O-])cc2N=C(c2ccc(C(=O)O)cc2)c2cc3c(cc21)C(C)(C)CCC3(C)C [HX531] | 99.6% |  | 88.6% | 100% | inhibition of RXR transactivation induced by A2E (RXR; A2E 20 μM, HX531 5 μM): 50.1%; inhibition of endogenous PPAR transactivation induced by A2E (PPAR; NBX 20 μM, HX531 5 μM (HX531 effect not significant)): 30%; inhibition of AP-1 transactivation induced by A2E (AP-1): 100%; lowering of VEGF mRNA expression induced by A2E (VEGF): 76.8% |
| CC1(C)CCC(C)(C)c2cc3c(cc21)Sc1ccccc1N=C3c1ccc(C(=O)O)cc1 [HX630] |  |  |  |  | transactivation of RXRs by the compound alone (RXR; HX630 5 μM, vs DMSO control): transactivation induced by HX630 |
| CC(C)c1ccc2c(c1)c(SC(C)(C)C)c(CC(C)(C)C(=O)O)n2Cc1ccc(Cl)cc1 [MK886] | 37% | did not significantly inhibit | 58.7% |  |  |
| O=C(Nc1ccncc1)c1cc([N+](=O)[O-])ccc1Cl [T007907] | 45.9% | did not significantly inhibit | 69.6% | 100% | effect of the compound alone on NF-κB transactivation (NF-κB; vs DMSO control): inhibited; effect of the compound alone on IL-6 mRNA expression (IL-6; vs DMSO control): enhanced |
